Results taken from US20210338576A1, “CANCER TREATMENT” (NOXOPHARM LIMITED, priority 2016, published 2021).

Tests used:
late-stage cancers = conditions: patients with late-stage cancers (Pant et al, 2014); cited from earlier work
[1] = Brown et al, 2008; cited from earlier work
primary prostate cancer [2] = test: Cytotoxic monotherapy with idronoxil suppository in theobroma oil base in prostate cancer patients, PSA follow-up; type: in vivo, human
Procedure: Patient receiving chemical castration therapy presenting with undetectable testosterone and receiving Zolodex for primary prostate cancer has a PSA doubling time of 6 weeks (PSA=9.6). Patient received suppository comprising 400 mg idronoxil in theobroma oil suppository base daily for 4 weeks. […] Suppository treatment was stopped for a period of 2 weeks and then continued for 2 weeks.
Patient receiving chemical castration therapy having urinary obstruction and pelvic discomfort receiving 400 mg idronoxil suppository formulation for primary prostate cancer (PSA=19). Patient received suppository comprising 800 mg idronoxil in theobroma oil suppository based daily in 2 week courses for 15 months. The suppository formulation slowed tumour growth to a doubling time of 6 months (PSA=67 at completion of 15 month therapy).

[3] = system: wide range of cancer cell types; conditions: fold more potent than genistein; cited from earlier work
primary prostate cancer [4] = test: Rectal idronoxil in olive oil (high oleic acid) base in a prostate cancer patient, PSA follow-up; type: in vivo, human
Procedure: Patient receiving chemical castration therapy presenting with undetectable testosterone and receiving Zolodex for primary prostate cancer (PSA=6.0). Patient received 400 mg idronoxil daily in olive oil base rectally for 3 weeks.

[5] = system: late-stage ovarian cancer; conditions: Phase 3, late-stage ovarian cancer, 142 women recruited (Fotopoulou et al. 2014); cited from earlier work
[6] = intravenously administered, cyclodextrin carrier (Howes et al, 2011); cited from earlier work
primary prostate cancer [7] = test: Oral administration of idronoxil to a prostate cancer patient, PSA follow-up; type: in vivo, human; parameters: PSA at completion of 2 week period: unit not given here
Procedure: Patient receiving chemical castration therapy presenting with undetectable testosterone and receiving Zolodex for primary prostate cancer (PSA=3.4). Patient received 400 mg idronoxil daily by oral administration, increasing to 800 mg daily for 2 weeks. PSA at completion of 2 week period=6.7 indicating doubling time of 1 month.

[8] = system: colo-rectal cancer cell lines (eg. HT-29, CaCo-2); conditions: HT-29, CaCo-2 (Alvero et al, 2008); cited from earlier work
[9] = 400 mg theobroma oil suppository, after stop for 2 weeks, then continued for 2 weeks
[10] = suppository 800 mg in theobroma oil base daily in 2 week courses for 15 months, PSA at start 19

Row | SMILES | clinical benefit (late-stage cancers) | susceptibility to Phase 1 metabolic processes [1] | PSA score (primary prostate cancer [2]; [9]) | effect on tumour growth (primary prostate cancer [2]; [9]) | effect on tumour growth (primary prostate cancer [2]; suppository 400 mg in theobroma oil base daily for 4 weeks) | PSA score (primary prostate cancer [2]; suppository 400 mg in theobroma oil base daily for 4 weeks, PSA at start 9.6, doubling time 6 weeks) | PSA at completion of 15 month therapy (primary prostate cancer [2]; [10]) | tumour doubling time (primary prostate cancer [2]; [10]) [months] | potency as an anti-cancer agent compared to genistein [3] | tumour growth during treatment (primary prostate cancer [4]; 400 mg daily in olive oil base rectally) | PSA at completion of 2 week period (primary prostate cancer [4]; 400 mg daily in olive oil base rectally for 3 weeks, PSA at start 6.0) | clinical benefit [5] | conjugation [6] | effect on tumour doubling time (primary prostate cancer [7]; oral administration) | PSA doubling time (primary prostate cancer [7]; oral, 400 mg daily increasing to 800 mg daily for 2 weeks) [month] | PSA at completion of 2 week period (primary prostate cancer [7]; oral, 400 mg daily increasing to 800 mg daily for 2 weeks, chemical castration therapy, PSA at start 3.4) | sensitivity of colo-rectal cancer cell lines [8]
1 | Oc1ccc(C2COc3cc(O)ccc3C2c2ccc(O)cc2)cc1 (centres unmarked) [ME-143, 4,4′-(7-hydroxychroman-3,4-diyl)diphenol] | failed to show any clinical benefit | – | – | – | – | – | – | – | – | – | – | – | – | – | – | – | –
2 | Oc1ccc(C2=Cc3ccc(O)cc3OC2)cc1 [idronoxil, 2H-1-Benzopyran-7-0,1,3-(4-hydroxyphenyl)] | – | not being particularly susceptible to Phase 1 metabolic processes | 10 | inhibitory effect on tumour growth | effectively stopped tumour growth | 10 | 67 | 6 | about 10 × | continual growth of tumour during the treatment period | 9.6 | lack of any clinical benefit | completely conjugated | failed to reduce tumour doubling time | 1 | 6.7 | insensitivity
